Test results reported in patent US9139608B2 (priority 2010, dated 2015).
Marks after values point to notes of the source that are not given here.

Tests used:
[1] = tested on: H. pylori (ATCC 26695, strain MS-5); experiment: H. Pylori infected rats with NSAID induced ulcers (RUT and PCR); assay type: in vivo, Helicobacter Pylori
[2] = tested on: acetic acid induced colitis; experiment: Acetic acid induced colitis in rats; assay type: in vivo, Male Wistar rats; details: 50 mg/kg p.o. once daily, pretreatment for 3 days, n = 6
Text: The acetic-acid induced colitis is a model of IBD with a similarity of the inflammatory mediators to that of acute human intestinal inflammation.
Procedure: In this model, initial injury was an epithelial necrosis and edema that variably extended into the lamina propria, submucosa, or external muscle layers, depending of the concentrations and length of exposure to acetic acid. […] Rats were fasted for 24 hrs, anesthetized and a cannula that has 3 mm diameter was inserted into the anus to the depth of 8 cm for instilling 2 ml of 3% acetic acid into the colon for 30 s. After 24 hrs, animals were sacrificed by cervical dislocation, the colon was isolated and the parameters of colitis were measured. […] The reversal of acetic acid induced conditions such as increased colon weight and colon weight to length ratio, which indicated beneficial effects of test drugs on colitis. These effects were further confirmed by decrease in macroscopic lesion score and myeloperoxidase activity in colon tissues.

ethanol induced ulcers = experiment: Ethanol induced ulcers in rats, prophylactic; assay type: in vivo, Male Wistar rats; details: then Ethanol 8 ml/kg p.o., n = 6
Method: Consumption of alcohol is another major factor resulting in gastric lesions.
The mean ulcer area in this study was measured to be 174.4 mm^2±5.814 mm^2 in the control group indicating the ulcerogenic effect of ethanol.

[3] = Pharmacokinetic study: availability of test drug at site of action; assay type: in vivo; details: healthy rats, single oral dose 250 mg/kg, feces 0-24 h
Method: The blood samples were collected at 0, 0.25, 0.50, 1, 2, 3, 4, 5 and 6 hours after dosing. Plasma was obtained by centrifugation of blood at 7000 rpm for 15 min at 4° C. and kept at −20° C. until analysis was carried out. The animals were kept in the metabolic cages for collection of urine and feces.

Naproxen induced ulcers = Naproxen induced ulcers in rats, prophylactic; assay type: in vivo, Male Wistar rats; details: then Naproxen 30 mg/kg p.o., n = 6
Text: Gastric lesions induced by NSAIDS drugs such as Naproxen can aggravate inflammatory reactions in the GI tract.

[4] = tested on: inflammatory bowel disease; experiment: Prospective study in patients with IBD, patient reported outcome; assay type: in vivo, Humans; set-up: key to Bleeding, Patient Recorded Outcome / Frequent trips to the bathroom, Patient Recorded Outcome / Dependence on medication diarrhea and pain, Patient Recorded Outcome / Abdominal pain, Patient Recorded Outcome / Diarrhea, Patient Recorded Outcome: 0—Absence; 1—Mild; 2—Moderate; 3—Severe; details: 300 mg twice daily for 6 months; for Abdominal pain, Patient Recorded Outcome / Bleeding, Patient Recorded Outcome / Dependence on medication diarrhea and pain, Patient Recorded Outcome / Diarrhea, Patient Recorded Outcome / Frequent trips to the bathroom, Patient Recorded Outcome: IBD
Method: A prospective study to assess the efficacy of the test drug in patients with IBD was conducted.
Thereafter, the efficacy of the test drug was analyzed on the basis of patient reported outcome taken at the beginning and end of the study period. Observations: It was observed that all patients were experiencing relief from IBD related symptoms such as abdominal pain, diarrhea, rectal bleeding, fever, nausea and vomiting. It was further observed that there was significant improvement in bowel control which was seen from reduced frequency of visits to restrooms, dependence on diarrhoea medication and pain associated with bowel movement.

hemorrhoids = experiment: Prospective uncontrolled pilot study in patients with hemorrhoids, patient reported outcome; assay type: in vivo, Humans; details: for Bloody stool, Median Value of Patient Reported Outcome / Difficulty to sit or walk, Median Value of Patient Reported Outcome / Edema, Median Value of Patient Reported Outcome / Itching, Median Value of Patient Reported Outcome / Pain, Median Value of Patient Reported Outcome: hemorrhoids, n = 5, scale 0 - Absence to 5 - Severe
Method: A prospective uncontrolled pilot study to access the efficacy of the test drug in patients with hemorrhoids was conducted. […] The efficacy of the test drug was analyzed on the basis of patient reported outcome taken at the beginning and end of the study period. […] It was further observed that there was significant relief in pain and irritation associated with bowel movement by the end of the treatment period.

TNBS induced IBD = experiment: TNBS induced colitis in rats; assay type: in vivo, Male Wistar rats
Text: In addition, increased body weight, decreased ulcer index and myeloperoxidase activity in colon is seen.
The trinitrobenzenesulfonic acid (TNBS) induced colitis is one of the standard animal models used for IBD. In this model, a single intracolonic administration of TNBS damages the colonic epithelium and induces prolonged chronic inflammation.
Procedure: In this study, Male Wistar rats (280-291 g) were fasted for 48 hrs, and put under anaesthesia. A 3 mm diameter cannula was inserted into the anus to the depth of 8 cm and 25 mg of TNBS dissolved in 0.25 ml of 30% ethanol solution was injected to each rat. The rats were positioned tail up for 1 minute. […] A healthy control group receiving only saline but no TNBS was maintained. On day 11, each group of rats were sacrificed by cervical dislocation and the colon was isolated for physical examination. Colon samples were preserved in 10% neutral formalin solution for histopathological evaluation.

histamine induced ulcers = experiment: Histamine (stress) induced ulcers in rats, prophylactic; assay type: in vivo, Male Wistar rats; details: then Histamine 300 mg/kg i.p., n = 6
Text: Stress induced gastric lesion is a condition that can cause or aggravate inflammatory reactions in the GI tract.

[5] = rats pretreated with 30 mg/kg p.o.
[6] = rats pretreated with 60 mg/kg p.o.
[7] = rats pretreated with 120 mg/kg p.o.
[8] = After Treatment, 300 mg twice daily for 15 days
[9] = TNBS induced IBD in rats, 50 mg/kg p.o. once daily, 10 days of treatment, n = 6
[10] = colon, TNBS induced IBD in rats, 50 mg/kg p.o. once daily, 10 days of treatment, n = 6

C[C@H]1[C@H](C)CC[C@]2(C(=O)OC3O[C@H](CO[C@H]4O[C@H](CO)[C@@H](O[C@@H]5O[C@@H](C)[C@H](O)[C@@H](O)[C@H]5O)[C@H](O)[C@H]4O)[C@@H](O)[C@H](O)[C@H]3O)CC[C@]3(C)C(=CCC4[C@@]5(C)C[C@@H](O)[C@H](O)[C@@](C)(CO)[C@@H]5CC[C@]43C)[C@H]12 (stereo partly drawn) [Test Drug, Asiaticoside]
ulcer area ([1]; H. Pylori infected rats with NSAID induced ulcers): dose dependent and time dependent reduction
eradication of H. Pylori infection (RUT, PCR) ([1]; H. pylori infected rats with Naproxen induced ulcers, 120 mg/kg p.o. twice daily): not effective in H. Pylori eradication
eradication of H. Pylori infection (RUT, PCR) ([1]; H. pylori infected rats with Naproxen induced ulcers, 240 mg/kg p.o. once daily): not effective in H. Pylori eradication
antibacterial action on H. Pylori infection ([1]; H. pylori infected rats with Naproxen induced ulcers, 360 mg/kg p.o. once daily): rapid antibacterial action on 3rd week
eradication of H. Pylori infection (RUT, PCR) ([1]; H. pylori infected rats with Naproxen induced ulcers, 360 mg/kg p.o. once daily, 9 weeks): eradication of H. Pylori infection in 9 weeks
Colon length [2]: 16.22 ± 0.63 mm
Colon weight [2]: 1.53 ± 0.10 g
Colon width [2]: 0.71 ± 0.05 mm
Microscopic score ([2]; colon): 4.33 ± 0.71
Myeloperoxidase activity ([2]; colon): 0.02 ± 0.002 U/mg
Area of Ulceration (ethanol induced ulcers; [5]): 159.3 ± 4.846* mm^2
Area of Ulceration (ethanol induced ulcers; [6]): 137.6 ± 4.069*** mm^2
Area of Ulceration (ethanol induced ulcers; [7]): 110.4 ± 2.305*** mm^2
drug recovered from fecal matter [3]: about 81.42%
Area of Ulceration (Naproxen induced ulcers; [5]): 5.49 ± 0.212^ns mm^2
Area of Ulceration (Naproxen induced ulcers; [6]): 4.52 ± 0.169**^ mm^2
Area of Ulceration (Naproxen induced ulcers; [7]): 2.632 ± 0.146***^ mm^2
Abdominal pain, Patient Recorded Outcome ([4]; Patient 1, After): 1
Bleeding, Patient Recorded Outcome ([4]; Patient 1, After): 0
Dependence on medication diarrhea and pain, Patient Recorded Outcome ([4]; Patient 1, After): 0
Diarrhea, Patient Recorded Outcome ([4]; Patient 1, After): 0
Frequent trips to the bathroom, Patient Recorded Outcome ([4]; Patient 1, After): 0
Abdominal pain, Patient Recorded Outcome ([4]; Patient 1, Before): 3
Bleeding, Patient Recorded Outcome ([4]; Patient 1, Before): 3
Dependence on medication diarrhea and pain, Patient Recorded Outcome ([4]; Patient 1, Before): 3
Diarrhea, Patient Recorded Outcome ([4]; Patient 1, Before): 3
Frequent trips to the bathroom, Patient Recorded Outcome ([4]; Patient 1, Before): 3
Abdominal pain, Patient Recorded Outcome ([4]; Patient 2, After): 0
Bleeding, Patient Recorded Outcome ([4]; Patient 2, After): 0
Dependence on medication diarrhea and pain, Patient Recorded Outcome ([4]; Patient 2, After): 0
Diarrhea, Patient Recorded Outcome ([4]; Patient 2, After): 0
Frequent trips to the bathroom, Patient Recorded Outcome ([4]; Patient 2, After): 1
Abdominal pain, Patient Recorded Outcome ([4]; Patient 2, Before): 3
Bleeding, Patient Recorded Outcome ([4]; Patient 2, Before): 3
Dependence on medication diarrhea and pain, Patient Recorded Outcome ([4]; Patient 2, Before): 3
Diarrhea, Patient Recorded Outcome ([4]; Patient 2, Before): 3
Frequent trips to the bathroom, Patient Recorded Outcome ([4]; Patient 2, Before): 3
Abdominal pain, Patient Recorded Outcome ([4]; Patient 3, After): 1
Bleeding, Patient Recorded Outcome ([4]; Patient 3, After): 0
Dependence on medication diarrhea and pain, Patient Recorded Outcome ([4]; Patient 3, After): 1
Diarrhea, Patient Recorded Outcome ([4]; Patient 3, After): 2
Frequent trips to the bathroom, Patient Recorded Outcome ([4]; Patient 3, After): 0
Abdominal pain, Patient Recorded Outcome ([4]; Patient 3, Before): 3
Bleeding, Patient Recorded Outcome ([4]; Patient 3, Before): 3
Dependence on medication diarrhea and pain, Patient Recorded Outcome ([4]; Patient 3, Before): 3
Diarrhea, Patient Recorded Outcome ([4]; Patient 3, Before): 3
Frequent trips to the bathroom, Patient Recorded Outcome ([4]; Patient 3, Before): 3
incidences of joint pain, skin diseases or eye related complications ([4]; three IBD patients): no incidences of joint pain, skin diseases or eye related complications
tolerability ([4]; three IBD patients): well tolerated
Bloody stool, Median Value of Patient Reported Outcome (hemorrhoids; [8]): 0
Difficulty to sit or walk, Median Value of Patient Reported Outcome (hemorrhoids; [8]): 1
Edema, Median Value of Patient Reported Outcome (hemorrhoids; [8]): 1
Itching, Median Value of Patient Reported Outcome (hemorrhoids; [8]): 2
Pain, Median Value of Patient Reported Outcome (hemorrhoids; [8]): 2
Bloody stool, Median Value of Patient Reported Outcome (hemorrhoids; Before Treatment): 5
Difficulty to sit or walk, Median Value of Patient Reported Outcome (hemorrhoids; Before Treatment): 5
Edema, Median Value of Patient Reported Outcome (hemorrhoids; Before Treatment): 3
Itching, Median Value of Patient Reported Outcome (hemorrhoids; Before Treatment): 5
Pain, Median Value of Patient Reported Outcome (hemorrhoids; Before Treatment): 5
relief of rectal bleeding (hemorrhoids; five hemorrhoid patients, 300 mg twice daily): all patients were relieved of rectal bleeding on the 3rd day of treatment
Colon length (TNBS induced IBD; [9]): 14.14 ± 0.53 mm
Colon weight (TNBS induced IBD; [9]): 1.71 ± 0.07 g
Colon width (TNBS induced IBD; [9]): 0.73 ± 0.13 mm
Body weight (TNBS induced IBD; TNBS induced IBD in rats, Day 0, before treatment, n = 6): 252.67 ± 3.121^ns1
Body weight (TNBS induced IBD; TNBS induced IBD in rats, Day 11 (10 days of treatment), 50 mg/kg p.o. once daily, n = 6): 293.00 ± 0.84***^
Body weight (TNBS induced IBD; TNBS induced IBD in rats, Normal (Day −2), before treatment, n = 6): 286.50 ± 3.14^ns1
rectal bleeding (TNBS induced IBD; TNBS induced IBD model, post treatment after TNBS administration): significantly reduced after 3rd day
Microscopic score (TNBS induced IBD; [10]): 4.40 ± 0.68
Myeloperoxidase activity (TNBS induced IBD; [10]): 0.02 ± 0.0003 U/mg
Area of Ulceration (histamine induced ulcers; [5]): 9.242 ± 0.415* mm^2
Area of Ulceration (histamine induced ulcers; [6]): 7.062 ± 0.362*** mm^2
Area of Ulceration (histamine induced ulcers; [7]): 4.598 ± 0.323*** mm^2
